# Test results: ChEMBL document CHEMBL1201862, “PubChem BioAssay data set” (2004)
#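 The compound was tested at five concentrations on cells cultured in 96-well plates, with a 48-hour exposure period. Here, GI50 denotes the concentration required for 50% inhibition of growth.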 Calls of active or inactive are those of the source. Rule as the data show it: active = GI50 up to about 1.1 µM and inactive = higher.
# Assays:
# Experiment in all cases: NCI tumour cell line growth inhibition, 48 h
# 786-0 = system: 786-0
# A549 = system: A549
# COLO 205 = system: COLO 205
# HOP-92 = system: HOP-92
# HT-29 = system: HT-29
# IGROV-1 = system: IGROV-1
# LOX IMVI = system: LOX IMVI
# NCI-H23 = system: NCI-H23
# NCI-H460 = system: NCI-H460
# OVCAR-3 = system: OVCAR-3
# OVCAR-4 = system: OVCAR-4
# OVCAR-8 = system: OVCAR-8
# PC-3 = system: PC-3
# RPMI-8226 = system: RPMI-8226
# SF-295 = system: SF-295
# SNB-19 = system: SNB-19
# SNB-75 = system: SNB-75
# U-251 = system: U-251
# Malme-3M = system: Malme-3M
SMILES,GI50 (786-0),GI50 (A549),GI50 (COLO 205),GI50 (HOP-92),GI50 (HT-29),GI50 (IGROV-1),GI50 (LOX IMVI),GI50 (NCI-H23),GI50 (NCI-H460),GI50 (OVCAR-3),GI50 (OVCAR-4),GI50 (OVCAR-8),GI50 (PC-3),GI50 (RPMI-8226),GI50 (SF-295),GI50 (SNB-19),GI50 (SNB-75),GI50 (U-251),GI50 (Malme-3M)
CC(=O)OCC1=CC2OC(=O)C3=COC(OC4OC(CO)C(O)C(O)C4O)C1C32 (stereo unspecified),> 100 µM (inactive),> 100 µM (inactive),> 100 µM (inactive),> 100 µM (inactive),> 100 µM (inactive),> 100 µM (inactive),> 100 µM (inactive),> 100 µM (inactive),> 10 µM (inactive),> 100 µM (inactive),> 100 µM (inactive),> 100 µM (inactive),> 100 µM (inactive),> 100 µM (inactive),> 100 µM (inactive),> 100 µM (inactive),> 100 µM (inactive),> 100 µM (inactive),–
S=C(N/N=C/c1ccccn1)N1CCCCC1,< 0.0137 µM (active),< 0.0129 µM (active),< 0.01 µM (active),0.212 µM (active),< 0.01 µM (active),< 0.01 µM (active),< 0.01 µM (active),< 0.01 µM (active),< 0.019 µM (active),< 0.01 µM (active),–,< 0.01 µM (active),< 0.01 µM (active),< 0.01 µM (active),0.121 µM (active),1.23 µM (inactive),0.0315 µM (active),< 0.0126 µM (active),< 0.0397 µM (active)
Cc1nc(C(N)=S)sc1/C(CC(=O)C(=O)Nc1cccc2ccc(O)cc12)=N\NC(=O)c1ccncc1,40.3 µM (inactive),> 100 µM (inactive),49.2 µM (inactive),31.6 µM (inactive),37.8 µM (inactive),53.7 µM (inactive),42.2 µM (inactive),> 100 µM (inactive),22.9 µM (inactive),34 µM (inactive),49.9 µM (inactive),49.1 µM (inactive),75.9 µM (inactive),–,> 100 µM (inactive),73.5 µM (inactive),> 100 µM (inactive),68.5 µM (inactive),–
CC1=NN(c2ccccc2)C(=O)/C1=C/c1ccc(O)cc1,> 100 µM (inactive),> 100 µM (inactive),> 100 µM (inactive),> 100 µM (inactive),> 100 µM (inactive),> 100 µM (inactive),> 100 µM (inactive),> 100 µM (inactive),> 100 µM (inactive),> 100 µM (inactive),> 100 µM (inactive),> 100 µM (inactive),> 100 µM (inactive),61.8 µM (inactive),> 100 µM (inactive),> 100 µM (inactive),–,> 100 µM (inactive),> 100 µM (inactive)
O=C(Cn1cc(-c2ccccc2)nn1)NC1CCCCC1,> 100 µM (inactive),> 100 µM (inactive),> 100 µM (inactive),> 100 µM (inactive),> 100 µM (inactive),> 100 µM (inactive),> 100 µM (inactive),> 100 µM (inactive),> 100 µM (inactive),–,> 100 µM (inactive),> 100 µM (inactive),> 100 µM (inactive),> 100 µM (inactive),> 100 µM (inactive),> 100 µM (inactive),> 100 µM (inactive),> 100 µM (inactive),> 100 µM (inactive)
COC(=O)c1cnc(Cl)c([N+](=O)[O-])c1,3.57 µM (inactive),20.6 µM (inactive),3.54 µM (inactive),2.17 µM (inactive),14.3 µM (inactive),2.79 µM (inactive),1.93 µM (inactive),17.3 µM (inactive),14.7 µM (inactive),14.8 µM (inactive),21.1 µM (inactive),2.03 µM (inactive),10.7 µM (inactive),2.52 µM (inactive),19 µM (inactive),18.5 µM (inactive),20.4 µM (inactive),2.16 µM (inactive),–
N#C/C(=C\c1cccc(Br)c1)c1nc2ccccc2c(=O)[nH]1,49.4 µM (inactive),> 100 µM (inactive),> 100 µM (inactive),15.1 µM (inactive),> 100 µM (inactive),> 100 µM (inactive),> 100 µM (inactive),–,> 100 µM (inactive),–,> 100 µM (inactive),> 100 µM (inactive),> 100 µM (inactive),> 100 µM (inactive),53.5 µM (inactive),43.7 µM (inactive),17.7 µM (inactive),40.3 µM (inactive),> 100 µM (inactive)
O=c1[nH]c(Nc2nc3ccccc3[nH]2)nc(O)c1Cc1ccccc1,61.5 µM (inactive),> 100 µM (inactive),> 100 µM (inactive),0.193 µM (active),> 100 µM (inactive),> 100 µM (inactive),–,> 100 µM (inactive),> 100 µM (inactive),–,> 100 µM (inactive),> 100 µM (inactive),> 100 µM (inactive),> 100 µM (inactive),–,67.8 µM (inactive),24 µM (inactive),56.8 µM (inactive),> 100 µM (inactive)
O=C1C=C2CO[C@H]3OC[C@H](O)[C@@H]1[C@@H]23,35 µM (inactive),> 100 µM (inactive),16.4 µM (inactive),46.3 µM (inactive),> 100 µM (inactive),> 100 µM (inactive),32.7 µM (inactive),> 100 µM (inactive),> 100 µM (inactive),> 100 µM (inactive),–,32 µM (inactive),> 100 µM (inactive),20.4 µM (inactive),> 100 µM (inactive),> 100 µM (inactive),43 µM (inactive),19.7 µM (inactive),21.6 µM (inactive)
CC(=O)Nc1ccc(N2C(=O)CS(=O)(=O)C2c2cccc(Oc3ccccc3)c2)cc1 (stereo unspecified),17.1 µM (inactive),20 µM (inactive),17.2 µM (inactive),13.8 µM (inactive),19.1 µM (inactive),–,15.7 µM (inactive),18.5 µM (inactive),17.8 µM (inactive),17.5 µM (inactive),14.2 µM (inactive),16.7 µM (inactive),16.8 µM (inactive),–,17 µM (inactive),18 µM (inactive),19.4 µM (inactive),17.7 µM (inactive),20.4 µM (inactive)
CC1(C)OC(=O)C(=Cc2ccc([N+](=O)[O-])s2)C(=O)O1,16.9 µM (inactive),90.8 µM (inactive),16.6 µM (inactive),21.1 µM (inactive),13.4 µM (inactive),–,16.7 µM (inactive),18.1 µM (inactive),56.6 µM (inactive),10.6 µM (inactive),–,11.4 µM (inactive),19.2 µM (inactive),8.32 µM (inactive),15.7 µM (inactive),16.5 µM (inactive),–,15.4 µM (inactive),19.2 µM (inactive)
Cc1cccc(C)c1NC(=O)C(=O)C(c1ccccc1Cl)S(=O)(=O)Cc1ccccc1Cl (stereo unspecified),27.7 µM (inactive),> 100 µM (inactive),> 100 µM (inactive),18.2 µM (inactive),> 100 µM (inactive),> 62.4 µM (inactive),> 100 µM (inactive),34.5 µM (inactive),> 100 µM (inactive),> 100 µM (inactive),> 100 µM (inactive),> 37.8 µM (inactive),> 100 µM (inactive),> 100 µM (inactive),23.7 µM (inactive),41.5 µM (inactive),11.2 µM (inactive),40.6 µM (inactive),–
Cc1ccc2sc3ccc(N)cc3c(=O)c2c1,54.5 µM (inactive),54.2 µM (inactive),42.5 µM (inactive),32.9 µM (inactive),30.2 µM (inactive),33.8 µM (inactive),28.1 µM (inactive),81.8 µM (inactive),41.3 µM (inactive),32 µM (inactive),63.5 µM (inactive),> 100 µM (inactive),55.1 µM (inactive),–,40.4 µM (inactive),> 100 µM (inactive),–,61.2 µM (inactive),–
C[n+]1c(-c2ccccc2)cc2/c(=C\c3ccc([N+](=O)[O-])cc3)c3ccccc3n21,1.52 µM (inactive),2.15 µM (inactive),0.532 µM (active),1.66 µM (inactive),0.957 µM (active),1.39 µM (inactive),2.63 µM (inactive),2.51 µM (inactive),1.45 µM (inactive),3.06 µM (inactive),26.1 µM (inactive),1.66 µM (inactive),3.1 µM (inactive),–,3.21 µM (inactive),3.06 µM (inactive),3.18 µM (inactive),1.43 µM (inactive),–
COC1CC(n2ccc(=O)[nH]c2=O)OC1CO (stereo unspecified),> 100 µM (inactive),> 100 µM (inactive),> 100 µM (inactive),> 100 µM (inactive),> 100 µM (inactive),> 100 µM (inactive),> 100 µM (inactive),> 100 µM (inactive),> 100 µM (inactive),> 100 µM (inactive),> 100 µM (inactive),> 100 µM (inactive),> 100 µM (inactive),–,> 100 µM (inactive),> 100 µM (inactive),–,> 100 µM (inactive),> 100 µM (inactive)
COc1ccc(-c2nnc3n(C)c4ccccc4n3c2=O)cc1,37.2 µM (inactive),> 100 µM (inactive),> 100 µM (inactive),> 100 µM (inactive),> 100 µM (inactive),51.5 µM (inactive),> 100 µM (inactive),40.1 µM (inactive),38.3 µM (inactive),–,> 100 µM (inactive),56.1 µM (inactive),> 100 µM (inactive),–,29.7 µM (inactive),91.8 µM (inactive),20.8 µM (inactive),27.7 µM (inactive),> 100 µM (inactive)
